Source: patent US20070196272A1, “ORAL DELIVERY OF THERAPEUTIC AGENTS USING TIGHT JUNCTION AGONISTS” (priority 2006, published 2007)
Where two headings read alike, the source gives them in different places.

Assays:
in vitro = settings: human, Caco-2
Description: (§1) Caco-2 cells, a human colon adenocarcinoma cell line, were grown as monolayers for 21 days in Dulbecco's Modified Eagle's medium (1×) containing 10% fetal bovine serum, 1% non-essential amino acid solution, 1% penicillin-streptomycin and 2% glutamine at 37° C. in an atmosphere of 5% CO2 and 90% relative humidity. Caco-2 cells from passage numbers of 51 to 52 were seeded on permeable polycarbonate inserts (1 cm^2, 0.4 μm pore size) in 12 Transwell plates at a density of 80,000 cells/cm^2. The inserts were fed with media every other day until they were used for experiments 21 days after the initial seeding. The integrity of the cell monolayers was evaluated by measuring the transepithelial electrical resistance (TEER) values before the study using a Millicell®-ERS meter (Millipore Corp., Bedford, Mass.) with chopstick electrodes. […] The cell monolayers were washed twice with PBS prior to the transport experiments. After the wash, the plates were incubated for 30 min at 37° C., and the integrity of the cell monolayers was evaluated by measurement of TEER. The cell inserts were used in transport experiments when the TEER values reached >300 Ωcm^2.
(§2) The insert was moved to a well containing fresh PBS every 10 min for 40 min.
(§3) Papp was calculated according to the following equation: [formula] […]
(§4) The percent enhancement ratio, ER (%), for the Papp was calculated from the formula, [formula] […]

[1] = AT-1002 10 mg/kg with bestatine 30 mg/kg and E-64 10 mg/kg, oral, each sampling time
Description: The ability of AT-1002 on the transport of [^14C]-mannitol across the intestinal membrane was examined in mice. [^14C]-mannitol (30 μCi/kg) was co-administered with AT-1002 (10 mg/kg) and protease inhibitors (i.e. bestatine (30 mg/kg) and E-64 (10 mg/kg)) to mice (n=3 per group) via the oral administration.

[2] = AT-1002 10, 20 and 40 mg/kg, PI, BC 0.05% w/v, ID
Description: The effect of AT-1002 on the transport of [^14C]-innulin across the intestine was examined in mice. [^14C]-innulin (30 μCi/kg) was co-administered with AT-1002 (10, 20 and 40 mg/kg), protease inhibitors (i.e. bestatine (30 mg/kg) and E-64 (10 mg/kg)) and benzalkonium chloride (0.05% w/v) to rats (n=4-5 per group) via the intra-duodenal administration.

[3] = tested on: intercellular tight junctions; assay: Ussing chamber model
Text: Our recent observation that zonulin may represent a new member of the serine protease family whose target receptor seems to be a variant of the protease activated receptor (PAR)2, lead us to the observation that the first six amino acids following V. cholerae-mediated ZOT cleavage (AA 289-295 [FCIGRL]) closely resembles the active motif of PAR2 (SLIGRL). Therefore, the six-mer synthetic peptide FCIGRL (that we named AT1002) was generated.

[4] = PI, BC 0.05% w/v, ID, not statistically enhanced
Caco-2 cell monolayers [5] = settings: AT1002 5 mM
Description: as §1, §2, §3, §4

[6] = for intestinal transport of [^3H]-cyclosporin A, enhancement: AT-1002 40 mg/kg with PI and BC 0.1% w/v, ID
Text: Male Sprague-Dawley rats (230-280 g) were purchased from Harlan Laboratories (Indianapolis, Ind.). Rats were housed individually in cages and allowed to acclimate at least two days after arrival. Rats were fed Rat Chow and water ad libitum and maintained on a 12-h light: 12-h dark cycle. The protocol for the animal studies was approved by the School of Pharmacy, University of Maryland IACUC.
Male Sprague-Dawley rats were fasted overnight prior to and during the study with free access to water. Prior to the administration of AT1002, the rats were anesthetized with an intra-peritoneal injection of ketamine (80 mg/kg) and xylazine (12 mg/kg), and the duodenum and jugular vein were cannulated. […] Blood samples (250 μl) were drawn via the jugular cannula into heparinized syringes at 0 (actual time point was −5 min before the administration), 20, 60, and 120 min into polypropylene tubes, centrifuged (13,000 rpm for 10 min) immediately and plasma was obtained. Scintillation cocktail was added and samples were analyzed for radioactivity by Beckman Coulter LS 6500 multi-purpose Scintillation counter.
The area under the plasma concentration-time curve (AUC0-t) was calculated using the linear trapezoidal rule. The highest observable concentration was defined as maximum concentration (Cmax). The percent enhancement ratio, ER (%), for the pharmacokinetic parameters was calculated from the formula, [formula]
[^3H]-cyclosporin (120 μCi/kg) was co-administered with AT-1002 (40 mg/kg), protease inhibitors (i.e. bestatine (30 mg/kg) and E-64 (10 mg/kg)) and benzalkonium chloride (0.1% w/v) to rats (n=5 per group) via the intra-duodenal administration.

[7] = ZOT 4.4×10^−10 mol/kg; cited from earlier work
Caco-2 cell monolayers [8] = settings: ZOT 0.22 to 0.89×10^−10 mol/ml; as seen with paclitaxel; cited from earlier work
PAR-2 = target: T1, PAR-2 (Mus musculus, UniProt P55086); settings: intracolonic infusion, 5 μg dose; cited from earlier work
T1 construct: Intracolonic infusion of a 5 μg dose of the PAR-2 agonist, SLIGRL; host or cells: colon in vivo (endogenous receptor)
T1 sequence (P55086 26-399): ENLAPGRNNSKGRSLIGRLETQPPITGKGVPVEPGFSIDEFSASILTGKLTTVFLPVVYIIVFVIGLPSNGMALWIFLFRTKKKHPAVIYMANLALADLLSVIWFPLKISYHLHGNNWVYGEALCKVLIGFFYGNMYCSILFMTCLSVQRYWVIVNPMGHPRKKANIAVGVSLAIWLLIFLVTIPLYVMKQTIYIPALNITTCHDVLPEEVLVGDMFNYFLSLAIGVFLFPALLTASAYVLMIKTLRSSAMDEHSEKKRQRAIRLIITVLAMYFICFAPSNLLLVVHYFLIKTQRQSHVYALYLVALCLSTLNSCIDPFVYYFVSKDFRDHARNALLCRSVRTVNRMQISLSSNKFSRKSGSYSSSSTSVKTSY

[9] = as seen with CsA after metabolic protection; cited from earlier work

OC[C@@H](O)[C@@H](O)[C@H](O)[C@H](O)CO [Mannitol]
Papp at 0.5 μCi/ml (in vitro): 0.686 ± 0.057 ×10⁻⁶ cm/s

H-FCIGRL-OH [AT1002, H—FCIGRL-OH]
intestinal membrane transport of marker [1]: not enhanced
intestinal membrane transport of [^14C]-innulin [2]: not enhanced
permeating effect on intercellular tight junctions [3]: retained the ZOT permeating effect
intestinal membrane transport of [^14C]-mannitol, increase ([4]; AT-1002 10 mg/kg): 1.43 fold
intestinal membrane transport of [^14C]-mannitol, increase ([4]; AT-1002 20 mg/kg): 1.24 fold
intestinal membrane transport of [^14C]-mannitol, increase ([4]; AT-1002 30 mg/kg): 1.81 fold
CsA transport across Caco-2 cell monolayers, significance vs control (Caco-2 cell monolayers [5]): No significant increases
intestinal transport of [^3H]-cyclosporin A, enhancement ([6]; 20 min): 1.78 fold
intestinal transport of [^3H]-cyclosporin A, enhancement ([6]; 60 min): 1.55 fold
change in plasma concentration of CsA between 10 mg/kg and 40 mg/kg of AT1002 ([6]; each time point): No statistically significant change
in vivo oral absorption of CsA ([6]; in the presence of PI): significantly increased

ZOT: 44.8 kDa protein (399 amino acids) of Vibrio cholerae that reversibly opens tight junctions
bioavailability of oral insulin / serum glucose lowering [7]: sufficient to lower serum glucose concentrations to levels comparable to those obtained after parenteral injection
transport enhancement across Caco-2 cell monolayers (Caco-2 cell monolayers [8]): up to 30 fold

SLIGRL
increase in the paracellular permeability of [^51C]-EDTA (PAR-2): 2 fold

ΔG: 12 kDa fragment (AA 265-399) of ZOT, biologically active fragment
increase in AUC [9]: ≤ 50 fold
increase in Cmax [9]: up to 57 fold
